According to ChEMBL document CHEMBL3352711, “Discovery and Characterization of ML398, a Potent and Selective Antagonist of the D4 Receptor with in Vivo Activity” (ACS Med Chem Lett, 2014):
The source made the active and inactive calls. The calls are words filed in the database; no cut-off is given here.

Key:
D(4) dopamine receptor = target: T1, D(4) dopamine receptor (Homo sapiens, UniProt P21917); assay: Inhibition of human dopamine D4 receptor
T1 sequence (P21917 whole entry): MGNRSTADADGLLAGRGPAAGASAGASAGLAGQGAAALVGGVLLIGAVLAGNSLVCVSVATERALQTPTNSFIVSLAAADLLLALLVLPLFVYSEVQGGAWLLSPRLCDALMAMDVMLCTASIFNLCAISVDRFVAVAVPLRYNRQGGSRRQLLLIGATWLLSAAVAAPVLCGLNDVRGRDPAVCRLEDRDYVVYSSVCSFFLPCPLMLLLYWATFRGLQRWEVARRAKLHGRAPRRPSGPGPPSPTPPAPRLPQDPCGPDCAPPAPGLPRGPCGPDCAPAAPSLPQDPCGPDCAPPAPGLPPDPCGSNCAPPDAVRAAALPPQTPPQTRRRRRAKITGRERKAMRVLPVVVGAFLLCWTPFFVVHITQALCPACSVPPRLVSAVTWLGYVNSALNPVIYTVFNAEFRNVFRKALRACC

[1] = target: T2, D(4) dopamine receptor (Homo sapiens) (UniProt P21917); assay: Inhibition of human dopamine D4 receptor at 10 uM
T2 sequence (whole entry): T1 sequence (P21917 whole entry)

D(3) dopamine receptor = D(3) dopamine receptor (Homo sapiens, UniProt P35462); assay: Inhibition of human dopamine D3 receptor
Sequence of D(3) dopamine receptor (P35462 whole entry): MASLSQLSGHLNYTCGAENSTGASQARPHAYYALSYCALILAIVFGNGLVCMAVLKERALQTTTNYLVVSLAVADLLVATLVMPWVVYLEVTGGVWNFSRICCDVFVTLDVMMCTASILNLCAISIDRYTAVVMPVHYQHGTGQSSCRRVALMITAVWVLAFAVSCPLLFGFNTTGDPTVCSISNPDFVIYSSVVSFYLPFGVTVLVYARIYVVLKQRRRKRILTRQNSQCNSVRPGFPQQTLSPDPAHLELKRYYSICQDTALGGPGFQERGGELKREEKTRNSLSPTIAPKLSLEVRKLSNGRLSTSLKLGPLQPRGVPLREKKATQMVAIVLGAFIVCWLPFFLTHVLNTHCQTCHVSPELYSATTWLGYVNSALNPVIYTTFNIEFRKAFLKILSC

D(2) dopamine receptor [2] = target: T3, D(2) dopamine receptor (Homo sapiens, UniProt P14416); assay: Inhibition of human dopamine D2L receptor
T3 sequence (P14416 whole entry): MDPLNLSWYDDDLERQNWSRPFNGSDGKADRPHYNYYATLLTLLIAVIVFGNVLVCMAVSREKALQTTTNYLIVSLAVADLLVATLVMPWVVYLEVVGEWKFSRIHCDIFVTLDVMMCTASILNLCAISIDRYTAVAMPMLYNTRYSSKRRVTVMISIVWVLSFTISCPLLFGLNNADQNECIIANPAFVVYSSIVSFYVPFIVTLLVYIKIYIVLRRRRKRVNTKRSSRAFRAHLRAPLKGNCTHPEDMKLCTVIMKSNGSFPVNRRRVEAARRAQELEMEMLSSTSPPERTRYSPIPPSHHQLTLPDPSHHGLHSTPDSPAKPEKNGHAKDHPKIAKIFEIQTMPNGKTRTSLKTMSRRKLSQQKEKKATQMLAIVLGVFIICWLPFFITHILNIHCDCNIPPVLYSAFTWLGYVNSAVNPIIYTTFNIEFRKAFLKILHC

[3] = target: D(1B) dopamine receptor (Homo sapiens) (UniProt P21918); assay: Inhibition of human dopamine D5 receptor
Sequence of D(1B) dopamine receptor (Homo sapiens) (P21918 whole entry): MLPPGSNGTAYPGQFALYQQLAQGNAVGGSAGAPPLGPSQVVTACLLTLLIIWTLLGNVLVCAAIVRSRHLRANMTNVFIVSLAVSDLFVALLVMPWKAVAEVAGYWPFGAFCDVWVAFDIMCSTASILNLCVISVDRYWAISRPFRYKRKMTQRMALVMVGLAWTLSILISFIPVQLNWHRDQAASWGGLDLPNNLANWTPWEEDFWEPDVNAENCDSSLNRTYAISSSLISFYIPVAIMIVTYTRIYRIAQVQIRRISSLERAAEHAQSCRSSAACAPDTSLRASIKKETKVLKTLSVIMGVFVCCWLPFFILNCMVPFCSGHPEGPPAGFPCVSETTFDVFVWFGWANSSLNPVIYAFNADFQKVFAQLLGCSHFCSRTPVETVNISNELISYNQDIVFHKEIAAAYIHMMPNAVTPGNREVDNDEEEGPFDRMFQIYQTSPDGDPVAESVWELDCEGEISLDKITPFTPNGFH

D(1A) dopamine receptor = D(1A) dopamine receptor (Homo sapiens, UniProt P21728); assay: Inhibition of human dopamine D1 receptor
Sequence of D(1A) dopamine receptor (P21728 whole entry): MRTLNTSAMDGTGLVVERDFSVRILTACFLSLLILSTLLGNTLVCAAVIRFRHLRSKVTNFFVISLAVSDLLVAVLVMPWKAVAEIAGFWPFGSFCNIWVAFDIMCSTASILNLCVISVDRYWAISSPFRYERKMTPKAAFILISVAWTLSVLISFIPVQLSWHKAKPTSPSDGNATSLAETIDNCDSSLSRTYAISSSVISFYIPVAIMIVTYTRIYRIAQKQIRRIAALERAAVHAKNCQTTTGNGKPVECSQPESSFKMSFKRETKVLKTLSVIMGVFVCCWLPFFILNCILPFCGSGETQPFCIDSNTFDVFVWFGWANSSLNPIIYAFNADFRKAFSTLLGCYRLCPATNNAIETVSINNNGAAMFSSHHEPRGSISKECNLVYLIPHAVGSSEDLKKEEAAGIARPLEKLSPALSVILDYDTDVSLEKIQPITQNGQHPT

D(2) dopamine receptor [4] = target: T3, D(2) dopamine receptor; assay: Inhibition of human dopamine D2S receptor
Cytochrome P450 2C9 = Cytochrome P450 2C9 (Homo sapiens, UniProt P11712); assay: Inhibition of human CYP2C9 by electrospray ionization; type: ADME
Sequence of Cytochrome P450 2C9 (P11712 whole entry): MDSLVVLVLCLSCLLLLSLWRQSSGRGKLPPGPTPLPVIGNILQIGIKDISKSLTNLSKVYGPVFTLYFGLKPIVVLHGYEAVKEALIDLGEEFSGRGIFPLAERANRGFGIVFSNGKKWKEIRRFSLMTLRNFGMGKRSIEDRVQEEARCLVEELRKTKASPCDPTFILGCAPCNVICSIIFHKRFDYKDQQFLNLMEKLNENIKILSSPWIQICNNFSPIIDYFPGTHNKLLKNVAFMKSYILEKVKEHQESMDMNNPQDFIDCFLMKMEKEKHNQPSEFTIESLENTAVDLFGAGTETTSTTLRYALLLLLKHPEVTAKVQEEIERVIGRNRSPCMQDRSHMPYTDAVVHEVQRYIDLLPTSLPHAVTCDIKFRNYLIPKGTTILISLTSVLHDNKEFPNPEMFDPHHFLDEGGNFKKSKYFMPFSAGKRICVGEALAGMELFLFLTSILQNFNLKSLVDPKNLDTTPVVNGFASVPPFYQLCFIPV

[5] = Ratio of drug level in Sprague-Dawley rat brain to plasma at 10 mg/kg, ip after 0.25 hrs; type: ADME, organism-based; design: dose 10 mg/kg, route intraperitoneal
Cytochrome P450 2D6 = Cytochrome P450 2D6 (Homo sapiens, UniProt P10635); assay: Inhibition of human CYP2D6 by electrospray ionization; type: ADME
Sequence of Cytochrome P450 2D6 (P10635 whole entry): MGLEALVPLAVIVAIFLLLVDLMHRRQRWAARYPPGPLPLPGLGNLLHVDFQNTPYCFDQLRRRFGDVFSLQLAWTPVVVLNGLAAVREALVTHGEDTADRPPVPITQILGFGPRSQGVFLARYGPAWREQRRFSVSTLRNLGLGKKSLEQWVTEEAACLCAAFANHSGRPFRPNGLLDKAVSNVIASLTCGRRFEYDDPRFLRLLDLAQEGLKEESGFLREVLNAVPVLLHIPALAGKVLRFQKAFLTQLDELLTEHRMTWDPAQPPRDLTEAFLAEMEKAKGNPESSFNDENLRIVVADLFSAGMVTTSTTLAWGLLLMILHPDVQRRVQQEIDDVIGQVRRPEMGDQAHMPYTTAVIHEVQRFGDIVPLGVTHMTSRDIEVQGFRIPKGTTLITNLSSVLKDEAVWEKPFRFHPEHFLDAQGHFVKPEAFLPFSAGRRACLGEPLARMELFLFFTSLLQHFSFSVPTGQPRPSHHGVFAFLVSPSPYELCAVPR

Rattus norvegicus [6] = assay: Reversal of cocaine-induced hyperlocomotion in Sprague-Dawley rat at 10 mg/kg, ip; type: functional, organism-based; design: dose 10 mg/kg
D(2) dopamine receptor [7] = target: T3, D(2) dopamine receptor; assay: Inhibition of human dopamine D2 receptor
Rattus norvegicus [8] = assay: Reversal of cocaine-induced hyperlocomotion in Sprague-Dawley rat at 3 mg/kg, ip; type: functional, organism-based; design: dose 3 mg/kg
[9] = Drug uptake in Sprague-Dawley rat plasma at 10 mg/kg, ip after 0.25 hrs; type: ADME, organism-based; design: dose 10 mg/kg, route intraperitoneal
Cytochrome P450 3A4 = Cytochrome P450 3A4 (Homo sapiens, UniProt P08684); assay: Inhibition of human CYP3A4 by electrospray ionization; type: ADME
Sequence of Cytochrome P450 3A4 (P08684 whole entry): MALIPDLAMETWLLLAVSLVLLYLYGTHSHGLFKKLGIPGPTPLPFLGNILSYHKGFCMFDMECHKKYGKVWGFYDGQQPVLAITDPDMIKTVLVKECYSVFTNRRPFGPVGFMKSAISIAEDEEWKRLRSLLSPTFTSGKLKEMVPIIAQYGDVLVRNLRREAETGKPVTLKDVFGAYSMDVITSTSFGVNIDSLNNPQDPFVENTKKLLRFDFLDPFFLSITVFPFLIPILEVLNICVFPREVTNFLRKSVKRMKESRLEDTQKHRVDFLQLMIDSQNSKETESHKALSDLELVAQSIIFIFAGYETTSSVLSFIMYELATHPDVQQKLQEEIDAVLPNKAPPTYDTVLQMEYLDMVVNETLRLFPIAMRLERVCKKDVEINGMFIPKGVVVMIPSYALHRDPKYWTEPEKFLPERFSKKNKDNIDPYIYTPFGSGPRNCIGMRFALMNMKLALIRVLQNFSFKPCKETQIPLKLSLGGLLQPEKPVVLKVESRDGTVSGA

[10] = Drug uptake in Sprague-Dawley rat brain at 10 mg/kg, ip after 0.25 hrs; type: ADME, organism-based; design: dose 10 mg/kg, route intraperitoneal
Cytochrome P450 1A2 = target: T4, Cytochrome P450 1A2 (Homo sapiens, UniProt P05177); assay: Inhibition of human CYP1A2 by electrospray ionization; type: ADME
T4 sequence (P05177 whole entry): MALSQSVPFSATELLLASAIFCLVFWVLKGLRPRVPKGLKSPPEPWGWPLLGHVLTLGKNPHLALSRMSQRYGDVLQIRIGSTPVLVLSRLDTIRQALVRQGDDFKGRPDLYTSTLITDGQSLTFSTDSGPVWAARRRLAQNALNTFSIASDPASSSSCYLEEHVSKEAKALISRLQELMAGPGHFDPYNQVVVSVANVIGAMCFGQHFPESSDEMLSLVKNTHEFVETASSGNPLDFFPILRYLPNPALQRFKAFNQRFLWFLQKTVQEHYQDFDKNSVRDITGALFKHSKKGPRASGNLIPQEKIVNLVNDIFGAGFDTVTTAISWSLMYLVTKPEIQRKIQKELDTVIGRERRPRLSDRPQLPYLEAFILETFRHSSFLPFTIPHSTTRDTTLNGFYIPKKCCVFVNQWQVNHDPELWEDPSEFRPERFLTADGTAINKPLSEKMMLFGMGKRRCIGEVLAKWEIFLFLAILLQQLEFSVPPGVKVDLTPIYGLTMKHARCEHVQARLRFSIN

[11] = Fraction unbound in human plasma; type: ADME, cell-free
[12] = Fraction unbound in rat plasma; type: ADME, cell-free
[13] = target: Sodium-dependent noradrenaline transporter (Homo sapiens) (UniProt P23975); assay: Binding affinity to norepinephrine transporter (unknown origin) at 10 uM by radioligand binding assay
Sequence of Sodium-dependent noradrenaline transporter (Homo sapiens) (P23975 whole entry): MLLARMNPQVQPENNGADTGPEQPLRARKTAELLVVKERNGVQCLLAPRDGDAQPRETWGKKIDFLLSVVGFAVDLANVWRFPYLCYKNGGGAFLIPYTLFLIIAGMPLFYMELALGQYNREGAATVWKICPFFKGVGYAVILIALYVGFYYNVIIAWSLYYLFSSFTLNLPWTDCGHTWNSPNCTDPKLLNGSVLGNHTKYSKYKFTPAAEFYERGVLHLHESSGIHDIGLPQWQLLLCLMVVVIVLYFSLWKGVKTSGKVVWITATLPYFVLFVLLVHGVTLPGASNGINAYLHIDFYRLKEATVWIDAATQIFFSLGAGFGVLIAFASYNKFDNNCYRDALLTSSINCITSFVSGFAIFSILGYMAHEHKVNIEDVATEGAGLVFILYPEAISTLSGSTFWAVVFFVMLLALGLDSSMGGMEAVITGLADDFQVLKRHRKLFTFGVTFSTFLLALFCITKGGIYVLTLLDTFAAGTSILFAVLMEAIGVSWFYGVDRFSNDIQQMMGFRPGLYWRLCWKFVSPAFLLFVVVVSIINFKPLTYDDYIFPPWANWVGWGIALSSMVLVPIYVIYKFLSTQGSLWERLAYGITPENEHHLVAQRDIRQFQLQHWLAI

[14] = target: Sigma non-opioid intracellular receptor 1 (Homo sapiens) (UniProt Q99720); assay: Binding affinity to sigma 1 receptor (unknown origin) at 10 uM by radioligand binding assay
[15] = target: Histamine H1 receptor (Homo sapiens) (UniProt P35367); assay: Binding affinity to histamine H1 receptor (unknown origin) at 10 uM by radioligand binding assay
Sequence of Histamine H1 receptor (Homo sapiens) (P35367 whole entry): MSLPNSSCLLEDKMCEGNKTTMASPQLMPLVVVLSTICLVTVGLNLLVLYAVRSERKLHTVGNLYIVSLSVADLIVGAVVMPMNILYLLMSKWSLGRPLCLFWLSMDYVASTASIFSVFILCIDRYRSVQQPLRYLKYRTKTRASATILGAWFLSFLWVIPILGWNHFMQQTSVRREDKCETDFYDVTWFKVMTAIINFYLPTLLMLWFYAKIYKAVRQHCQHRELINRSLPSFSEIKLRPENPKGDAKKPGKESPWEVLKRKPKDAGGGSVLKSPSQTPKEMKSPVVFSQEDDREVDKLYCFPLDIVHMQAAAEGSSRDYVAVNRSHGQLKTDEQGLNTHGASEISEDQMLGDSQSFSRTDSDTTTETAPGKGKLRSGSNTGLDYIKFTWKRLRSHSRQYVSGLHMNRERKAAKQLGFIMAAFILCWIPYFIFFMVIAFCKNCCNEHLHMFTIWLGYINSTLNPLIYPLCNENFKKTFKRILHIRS

[16] = target: T5, Alpha-1A adrenergic receptor (Homo sapiens) (UniProt P35348); assay: Binding affinity to adrenergic alpha1A receptor (unknown origin) at 10 uM by radioligand binding assay
T5 sequence (whole entry): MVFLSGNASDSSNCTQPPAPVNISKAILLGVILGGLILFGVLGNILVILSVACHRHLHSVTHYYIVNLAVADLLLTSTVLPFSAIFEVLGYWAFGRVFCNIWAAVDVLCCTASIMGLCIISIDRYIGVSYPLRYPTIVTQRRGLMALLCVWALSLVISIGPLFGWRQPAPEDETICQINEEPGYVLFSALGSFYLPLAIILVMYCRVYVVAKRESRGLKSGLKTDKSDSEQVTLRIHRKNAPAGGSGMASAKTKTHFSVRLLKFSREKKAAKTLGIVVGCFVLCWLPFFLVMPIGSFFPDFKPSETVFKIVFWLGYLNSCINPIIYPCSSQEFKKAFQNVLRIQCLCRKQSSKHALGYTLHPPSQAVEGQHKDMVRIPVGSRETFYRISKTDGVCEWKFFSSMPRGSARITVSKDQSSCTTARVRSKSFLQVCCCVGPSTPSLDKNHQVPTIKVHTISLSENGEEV

[17] = target: Sodium-dependent dopamine transporter (Homo sapiens) (UniProt Q01959); assay: Binding affinity to dopamine transporter (unknown origin) at 10 uM by radioligand binding assay
Sequence of Sodium-dependent dopamine transporter (Homo sapiens) (Q01959 whole entry): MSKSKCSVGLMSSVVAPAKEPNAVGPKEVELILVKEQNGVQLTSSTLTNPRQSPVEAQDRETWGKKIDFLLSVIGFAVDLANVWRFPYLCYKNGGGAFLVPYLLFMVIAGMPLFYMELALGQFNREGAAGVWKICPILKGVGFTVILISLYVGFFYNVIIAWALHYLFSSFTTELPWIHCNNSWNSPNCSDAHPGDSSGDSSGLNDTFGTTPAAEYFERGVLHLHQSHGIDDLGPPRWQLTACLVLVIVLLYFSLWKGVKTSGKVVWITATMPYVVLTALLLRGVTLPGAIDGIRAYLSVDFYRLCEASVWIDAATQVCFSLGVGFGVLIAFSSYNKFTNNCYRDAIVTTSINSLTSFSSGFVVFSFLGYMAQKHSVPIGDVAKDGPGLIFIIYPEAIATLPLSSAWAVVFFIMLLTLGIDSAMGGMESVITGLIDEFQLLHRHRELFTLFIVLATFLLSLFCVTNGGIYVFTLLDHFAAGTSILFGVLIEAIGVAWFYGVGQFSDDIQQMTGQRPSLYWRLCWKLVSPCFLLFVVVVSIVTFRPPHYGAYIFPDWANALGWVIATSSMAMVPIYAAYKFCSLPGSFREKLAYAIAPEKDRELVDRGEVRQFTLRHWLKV

## c1ccc(CCC2CN(Cc3ccccc3)CCO2)cc1 (racemic)
D(4) dopamine receptor
  IC50: 1.48 µM
  Ki: 0.41 µM
[1]
  inhibition: 74%

## FC(F)(F)Oc1ccc(CN2CCOC(CCc3ccccc3)C2)cc1 (racemic)
D(4) dopamine receptor
  IC50: 0.16 µM
  Ki: 0.043 µM
D(3) dopamine receptor
  IC50: 8.17 µM
  Ki: 2.77 µM
D(2) dopamine receptor [2]
  Ki: 5.5 µM
[3]
  INH: > 20 µM
D(1A) dopamine receptor
  INH: > 20 µM
[1]
  inhibition: 94%
D(2) dopamine receptor [4]
  INH: > 20 µM

## O=C(Nc1ccc(F)cc1)N1CCOC(CCc2ccccc2)C1 (racemic)
[1]
  inhibition: 5%

## c1ccc(CC[C@@H]2CN(Cc3nc4ccccc4[nH]3)CCO2)cc1
Cytochrome P450 2C9
  IC50: 4.8 µM
[5]
  Kp at 0.25 h: 1.8
D(4) dopamine receptor
  IC50: 0.18 µM
  Ki: 0.07 µM
D(3) dopamine receptor
  IC50: 46.2 µM
  Ki: 15.7 µM
Cytochrome P450 2D6
  IC50: 12 µM
Rattus norvegicus [6]
  Activity: inactive
D(2) dopamine receptor [7]
  IC50: > 100 µM
  Ki: > 100 µM
Rattus norvegicus [8]
  Activity: inactive
[9]
  concentration at 0.25 h: 1940 nM
Cytochrome P450 3A4
  IC50: 15.6 µM
[10]
  concentration at 0.25 h: 3560 nM
Cytochrome P450 1A2
  IC50: 13.1 µM
[11]
  fraction unbound: 0.012
D(1A) dopamine receptor
  IC50: > 100 µM
  Ki: > 100 µM
[12]
  fraction unbound: 0.133

## Fc1ccc(CN2CCOC(CCc3ccccc3)C2)cc1 (racemic)
D(4) dopamine receptor
  IC50: 1.14 µM
  Ki: 0.32 µM
[1]
  inhibition: 88%

## FC(F)(F)Oc1ccc(CN2CCO[C@H](CCc3ccccc3)C2)cc1
D(4) dopamine receptor
  IC50: 0.23 µM
  Ki: 0.065 µM
D(3) dopamine receptor
  IC50: 8.17 µM
  Ki: 2.77 µM
D(2) dopamine receptor [2]
  Ki: 5.5 µM
[3]
  INH: > 20 µM
D(1A) dopamine receptor
  INH: > 20 µM
[1]
  inhibition: 96%
D(2) dopamine receptor [4]
  INH: > 20 µM

## c1ccc(CCC2CN(Cc3cccnc3)CCO2)cc1 (racemic)
[1]
  inhibition: 35%

## c1ccc(CCC2CN(Cc3ccncc3)CCO2)cc1 (racemic)
[1]
  inhibition: 13%

## Clc1ccc(CN2CCOC(CCc3ccccc3)C2)cc1 (racemic)
D(4) dopamine receptor
  IC50: 0.29 µM
  Ki: 0.081 µM
D(3) dopamine receptor
  INH: > 20 µM
D(2) dopamine receptor [2]
  INH: > 20 µM
[3]
  INH: > 20 µM
D(1A) dopamine receptor
  INH: > 20 µM
[1]
  inhibition: 97%
D(2) dopamine receptor [4]
  INH: > 20 µM

## O=S(=O)(c1ccccc1)N1CCOC(CCc2ccccc2)C1 (racemic)
[1]
  inhibition: 2%

## c1ccc(CCC2CN(c3ccccc3)CCO2)cc1 (racemic)
[1]
  inhibition: 5%

## Cc1ccccc1CN1CCOC(CCc2ccccc2)C1 (racemic)
D(4) dopamine receptor
  IC50: 3.68 µM
  Ki: 1.02 µM
[1]
  inhibition: 54%

## Cc1ccc(C(=O)N2CCOC(CCc3ccccc3)C2)cc1 (racemic)
[1]
  inhibition: 17%

## c1ccc(CCC2CN(Cc3nc4ccccc4[nH]3)CCO2)cc1 (racemic)
D(4) dopamine receptor
  IC50: 0.36 µM
  Ki: 0.14 µM
D(3) dopamine receptor
  IC50: 31.8 µM
  Ki: 10.8 µM
D(2) dopamine receptor [7]
  IC50: > 100 µM
  Ki: > 100 µM
D(1A) dopamine receptor
  IC50: > 100 µM
  Ki: > 100 µM

## FC(F)(F)Oc1cccc(CN2CCOC(CCc3ccccc3)C2)c1 (racemic)
D(4) dopamine receptor
  IC50: 0.39 µM
  Ki: 0.11 µM
[1]
  inhibition: 88%

## c1ccc(CC[C@H]2CN(Cc3nc4ccccc4[nH]3)CCO2)cc1
D(4) dopamine receptor
  IC50: > 100 µM
  Ki: > 100 µM
D(3) dopamine receptor
  IC50: 76.4 µM
  Ki: 25.9 µM
D(2) dopamine receptor [7]
  IC50: > 100 µM
  Ki: > 100 µM
D(1A) dopamine receptor
  IC50: > 100 µM
  Ki: > 100 µM

## Fc1cccc(F)c1CN1CCOC(CCc2ccccc2)C1 (racemic)
D(4) dopamine receptor
  IC50: 3.88 µM
  Ki: 1.07 µM
[1]
  inhibition: 51%

## Clc1ccc(CN2CCO[C@H](CCc3ccccc3)C2)cc1
[13]
  Activity: 68%
[14]
  Activity: 99%
[15]
  Activity: 93%
[16]
  Activity: 77%
[17]
  Activity: 72%
Cytochrome P450 2C9
  IC50: > 30 µM
[5]
  Kp at 0.25 h: 2
D(4) dopamine receptor
  IC50: 0.13 µM
  Ki: 0.036 µM
D(3) dopamine receptor
  INH: > 20 µM
Cytochrome P450 2D6
  IC50: 18 µM
Rattus norvegicus [6]
  Activity: Active
[9]
  concentration at 0.25 h: 482 nM
D(2) dopamine receptor [2]
  INH: > 20 µM
Cytochrome P450 3A4
  IC50: > 30 µM
[10]
  concentration at 0.25 h: 987 nM
Cytochrome P450 1A2
  IC50: > 30 µM
[11]
  fraction unbound: 0.061
[3]
  INH: > 20 µM
D(1A) dopamine receptor
  INH: > 20 µM
[1]
  inhibition: 96%
[12]
  fraction unbound: 0.039
D(2) dopamine receptor [4]
  INH: > 20 µM

## c1ccc(CCC2CN(Cc3ccccn3)CCO2)cc1 (racemic)
[1]
  inhibition: 23%

## COc1ccc(CN2CCOC(CCc3ccccc3)C2)cc1 (racemic)
D(4) dopamine receptor
  IC50: 0.17 µM
  Ki: 0.046 µM
D(3) dopamine receptor
  IC50: 8.17 µM
  Ki: 2.77 µM
D(2) dopamine receptor [2]
  IC50: 16.5 µM
[3]
  INH: > 20 µM
D(1A) dopamine receptor
  INH: > 20 µM
[1]
  inhibition: 98%
D(2) dopamine receptor [4]
  INH: > 20 µM

## Cn1c(N2CCOC(CCc3ccccc3)C2)nc2ccccc21 (racemic)
[1]
  inhibition: 17%
